Experiments:
Format in all cases: cell-based
[1] = tested on: NCI-H1650 side population (SP) stem-like cells; test: Sphere formation assay with stem-like side population NSCLC cells; settings: H1650 (EGFR mutation), 0.5-5.0 μM, Day 10
Procedure: (§1) In order to investigate the role of HDAC11 in the self-renewal of stem-like cancer cells, sphere formation assays were conducted with NSCLC side population (SP) stem-like cells. A549 and NCI-H1650 cells were obtained from the ATCC. Asynchronously growing A549 or NCI-H1650 cells were washed once with phosphate buffered saline (PBS) and harvested using Accutase solution (Sigma Aldrich) and resuspended in DMEM-F12K medium (Gibo, Life Technologies) with 2% fetal bovine serum (FBS) at 1×10^6 cells/ml density. The cells were incubated with 4 μg/ml of Hoechst 33342 dye (Life Technologies) for 90 min at 37° C. in the presence or absence of 1 μM Fumitremorgin C (Sigma-Aldrich) which was used as a control sample to set the gate during sorting. The Hoechst stained cells were sorted using the BD FACSAria cell sorter. The sorted SP cells were plated in 96-well ultra-low adherent plate (Corning Inc) at the cell density of 1000 cells/100 μl/well in stem cell selective medium (DMEM:F12K supplemented with N2 supplement, 10 ng/mL epidermal growth factor (EGF) and 10 ng/ml basic fibroblast growth factor (bFGF) (Sigma-Aldrich) at 37° C. for 7-10 days. The spheres were observed and acquired using EVOS FL microscope system (Life Technologies Inc., USA). The numbers of spheres greater than or equal to 50 μm were counted. To study the effect of the HDAC11 inhibitors, the appropriate concentrations of the compounds were added to the wells on Day 0 and Day 5 and the image acquisition and analysis of the spheres were performed on Day 10. The sphere formation assays were performed twice with triplicates of each treatment in every assay.

[2] = tested on: A549 side population (SP) stem-like cells; test: as above; settings: A549 (KRAS mutation), 0.5-5.0 μM, Day 10
Procedure: as §1

[3] = tested on: STAT3 and STAT5 phosphorylation in HEL 92.1.7 cells; test: STAT3 and STAT5 phosphorylation western blot assay
Procedure: The effects of selective HDAC11 inhibition on STAT3 and STAT3 phosphorylation in HEL 92.1.7 cells were determined by western blot. Cells were treated with HDAC11 inhibitors and lysed in RIPA buffer (Sigma-Aldrich, St. Louis, Mo.) supplemented with protease inhibitors (Roche, Basel, Switzerland) and phosphatase inhibitors (Sigma P5726). Protein concentrations were determined with Pierce BCA protein assay kit (Thermo Fisher Scientific, Waltham, Mass.). Proteins were separated on a 4-12% Bis-Tris gradient electrophoresis gel (Life Technologies, Carlsbad, Calif.) and transferred onto a nitrocellulose membrane. The membrane was then blocked in either 5% nonfat dry milk or 5% BSA followed by incubation with primary antibodies at 4° C. overnight. Antibodies for p-STAT5 (Abcam 32364), STAT5 (Cell Signaling 9358), p-STAT3 (Cell Signaling 9145) and STAT3 (Cell Signaling 9139) were used. β-actin was used as loading control.

[4] = tested on: H1650 cells; test: QRT-PCR assay for stem cell transcription factors; settings: 72 hours
Procedure: (§2) Given the effects of HDAC11 inhibition on stem-like side population cells, the effects on the expression of stem cell transcription factors was determined using QRT-PCR. A549 or H1650 cells were plated in 60 mm cell culture dishes (120,000 cells). The next day, HDAC11 inhibitors were added at various concentrations and incubated for 72 hours. For the siRNA experiments, A549 cells were plated in 60 mm cell culture dishes (120,000 cells per dish). The siRNAs (Santa Cruz Biotechnologies sc-106896 or ThermoFisher Scientific Cat#4392420) were transfected at a concentration of 100 and 150 pmoles into cells using Oligofectamine reagent (Invitrogen) as per manufacturer's protocol. A non-targeting siRNA (Ambion AM4635) was used as a control for all the transfection experiments. The cells were harvested after 72 hours post transfection. At the end of the treatments, cells were scraped, lysed and total RNA was isolated by RNeasy miniprep kit from Qiagen following the manufacturer's protocol (RNeasy mini kit Cat No. 74104). 1 μg of RNA was converted into cDNA using iScript cDNA synthesis kit (BioRad) in a 20 μl total reaction volume. Levels of mRNA were further analyzed using quantitative real time-PCR (qRT-PCR) that was performed in CFX96 Real time system using BioRad iQ SYBR Green supermix. The reaction was set with 5 μl of SYBR Green, 1 μl of 1 μM Forward primer, 1 μl of 1 μM Reverse primer, 0.5 μl of cDNA and 4.5 μl of water in a total 12 μl reaction. Data was normalized using GAPDH as an internal control and fold change was calculated by 2^−Delta-DeltaCt method. First the Delta-Ct was calculated (Delta-Ct=Ct Gene−Ct GAPDH). Next Delta-Delta-Ct was calculated (Delta-Delta-Ct=Delta-Ct treatment−Delta-Ct control). Finally fold change was calculated by 2^−Delta-DeltaCt.

[5] = tested on: A549 cells; test: QRT-PCR assay for stem cell transcription factors; settings: 72 hours
Procedure: as §2

[6] = tested on: NCI-H2170 cells; test: Cell proliferation assay with combination treatment (MTT); settings: H2170, combination with GDC-0449 (Vismodegib) or BMS-833923, 96 hours
Procedure: (§3) Selective HDAC11 inhibitors may be useful in combination with other targeted agents, including Jak2 inhibitors and Smoothened inhibitors. The effect of combination with the Smoothened inhibitors GDC-0449 (Vismodegib) and BMS-833923 was tested in lung cancer cell lines. A549 and NCI-H2170 cells were obtained from the ATCC. H2170 is a squamous carcinoma cell line. Cell viability was assessed using MTT reagent (Thiazolyl Blue Tetrazolium Bromide) (Sigma-Aldrich). The cells were grown in 96-well plates at a density of 3000-5000 cells/well in triplicates. The HDAC11 inhibitors were added to the adherent cells at different concentrations and treatment was carried out for 96 hours. After treatments, the cells were incubated with the 1 mg/mL MTT reagent at 37° C. for 1 hour. The reaction was terminated with DMSO that solubilizes the formazan product formed. Absorbance at 590 nm was recorded in a plate reader.

[7] = tested on: A549 cells; test: as above; settings: A549, combination with GDC-0449 (Vismodegib) or BMS-833923, 96 hours
Procedure: as §3

SMILES | growth of stem-like cancer cells (sphere formation) [1] | growth of stem-like cancer cells (sphere formation) [2] | STAT3 phosphorylation [3] | STAT5 phosphorylation [3] | expression of Gli1 (mRNA) [4] | expression of Sox2 (mRNA) [4] | expression of Yap1 (mRNA) [4] | expression of Gli1 (mRNA) [5] | expression of Sox2 (mRNA) [5] | expression of Yap1 (mRNA) [5] | cell viability, combination with Smoothened inhibitors [6] | cell viability, combination with Smoothened inhibitors [7]
O=C(NO)c1cccc(Nc2nc3cc(Cl)c(Cl)cc3o2)c1 [HDTK010, 3-((5,6-dichlorobenzo[d]oxazol-2-yl)amino)-N-hydroxybenzamide] | prevented growth | prevented growth | inhibited | inhibited | decreased expression | decreased expression | decreased expression | decreased expression | decreased expression | decreased expression | decreased cell viability | decreased cell viability
O=C(NO)c1cccc2c1C[C@]1(CCN(Cc3ccc(Cl)c(C(F)(F)F)c3)C1=O)C2 [HDTK054, (S)-1′-(4-chloro-3-(trifluoromethyl)benzyl)-N-hydroxy-2′-oxo-1,3-dihydrospiro[indene-2,3′-pyrrolidine]-4-carboxamide] | prevented growth | prevented growth |  |  | decreased expression | decreased expression | decreased expression | decreased expression | decreased expression | decreased expression | decreased cell viability | decreased cell viability

Reference: patent US10538496B2, “Methods using HDAC11 inhibitors” (FORMA Therapeutics, Inc., priority 2016, dated 2020)
